Measurements from ChEMBL document CHEMBL4393691, “Design, synthesis and antitumor evaluation of novel celastrol derivatives” (Eur J Med Chem, 2019).
pIC50: −log10 of the molar value. Activity calls are given as the source filed them. No cut-off for these calls is given here.

Columns and labels:
[1] = test system: A549; assay: Induction of apoptosis in human A549 cells assessed as early apoptotic cells at 0.6 uM incubated for 24 hrs by AnnexinV-FITC/propidium iodide staining-based flow cytometric analysis (reference value: 4.1%); type: functional
[2] = test system: A549; assay: Induction of apoptosis in human A549 cells assessed as late apoptotic cells at 1.2 uM incubated for 24 hrs by AnnexinV-FITC/propidium iodide staining-based flow cytometric analysis (reference value: 4.2%); type: functional
[3] = test system: MCF7; assay: cells; conditions: Homo sapiens, MCF7, 48 h
[4] = test system: A549; assay: Induction of apoptosis in human A549 cells assessed as increase in BAX expression incubated for 8 hrs by western blot analysis; type: functional, cell-based
[5] = test system: A549; assay: Induction of apoptosis in human A549 cells assessed as increase in Fas-L expression at 0.5 to 2 uM incubated for 8 hrs by western blot analysis; type: functional, cell-based
[6] = test system: A549; assay: Induction of apoptosis in human A549 cells assessed as decrease in Bcl-2 expression incubated for 8 hrs by western blot analysis; type: functional, cell-based
[7] = test system: A549; assay: Induction of apoptosis in human A549 cells assessed as necrotic cells at 0.2 uM incubated for 24 hrs by AnnexinV-FITC/propidium iodide staining-based flow cytometric analysis (reference value: 3.6%); type: functional
[8] = test system: A549; assay: Induction of apoptosis in human A549 cells assessed as cell shrinkage at 0.06 to 0.18 uM incubated for 48 hrs by Hoechst 33342 staining-based fluorescence microscopy; type: functional
[9] = test system: A549; assay: Induction of apoptosis in human A549 cells assessed as increase in Fas expression at 0.5 to 2 uM incubated for 8 hrs by western blot analysis; type: functional, cell-based
[10] = test system: A549; assay: Induction of apoptosis in human A549 cells assessed as viable cells at 0.4 uM incubated for 24 hrs by AnnexinV-FITC/propidium iodide staining-based flow cytometric analysis (reference value: 88.1%); type: functional; conditions: A549, 24 h, read-out: Activity
[11] = test system: A549; assay: Cell cycle arrest in human A549 cells assessed as accumulation at G2 phase at 0.06 uM incubated for 24 hrs by propidium iodide staining based flow cytometry analysis (Rvb=18.01%); type: functional
[12] = test system: A549; assay: Induction of apoptosis in human A549 cells assessed as increase in cleaved caspase8 expression at 0.5 to 2 uM incubated for 8 hrs by western blot analysis; type: functional, cell-based
[13] = test system: A549; assay: Cell cycle arrest in human A549 cells assessed as accumulation at S phase at 0.27 uM incubated for 24 hrs by propidium iodide staining based flow cytometry analysis (Rvb=27.61%); type: functional
[14] = test system: A549; assay: Cell cycle arrest in human A549 cells assessed as accumulation at G2 phase at 0.18 uM incubated for 12 hrs by propidium iodide staining based flow cytometry analysis (Rvb=11.7%); type: functional
[15] = test system: A549; assay: Induction of apoptosis in human A549 cells assessed as viable cells at 1.2 uM incubated for 24 hrs by AnnexinV-FITC/propidium iodide staining-based flow cytometric analysis (reference value: 88.1%); type: functional; conditions: A549, 24 h, read-out: Activity
[16] = test system: A549; assay: Induction of apoptosis in human A549 cells assessed as late apoptotic cells at 0.2 uM incubated for 24 hrs by AnnexinV-FITC/propidium iodide/propidium iodide staining-based flow cytometric analysis (reference value: 4.2%); type: functional
[17] = test system: A549; assay: Cell cycle arrest in human A549 cells assessed as accumulation at G1 phase at 0.18 uM incubated for 12 hrs by propidium iodide staining based flow cytometry analysis (Rvb=49.49%); type: functional
[18] = test system: A549; assay: Induction of apoptosis in human A549 cells assessed as early apoptotic cells at 1.2 uM incubated for 24 hrs by AnnexinV-FITC/propidium iodide staining-based flow cytometric analysis (reference value: 4.1%); type: functional
[19] = test system: A549; assay: Induction of apoptosis in human A549 cells assessed as viable cells at 0.2 uM incubated for 24 hrs by AnnexinV-FITC/propidium iodide/propidium iodide staining-based flow cytometric analysis (reference value: 88.1%); type: functional; conditions: A549, 24 h, read-out: Activity
[20] = test system: A549; assay: Induction of apoptosis in human A549 cells assessed as increase in caspase-3 expression incubated for 8 hrs by western blot analysis; type: functional, cell-based
[21] = test system: A549; assay: cells; conditions: Homo sapiens, A549, 48 h
[22] = test system: HepG2; assay: Cytotoxicity against human HepG2 cells assessed as reduction in cell viability incubated for 48 hrs by MTT assay; type: functional, cell-based; conditions: HepG2, 48 h
[23] = test system: A549; assay: Induction of apoptosis in human A549 cells assessed as late apoptotic cells at 0.6 uM incubated for 24 hrs by AnnexinV-FITC/propidium iodide staining-based flow cytometric analysis (reference value: 4.2%); type: functional
[24] = test system: A549; assay: Cell cycle arrest in human A549 cells assessed as accumulation at S phase at 0.27 uM incubated for 12 hrs by propidium iodide staining based flow cytometry analysis (Rvb=38.46%); type: functional
[25] = test system: A549; assay: Cell cycle arrest in human A549 cells assessed as accumulation at S phase at 0.06 uM incubated for 24 hrs by propidium iodide staining based flow cytometry analysis (Rvb=27.61%); type: functional
[26] = test system: A549; assay: Cell cycle arrest in human A549 cells assessed as accumulation at G1 phase at 0.27 uM incubated for 12 hrs by propidium iodide staining based flow cytometry analysis (Rvb=49.49%); type: functional
[27] = test system: A549; assay: Inhibition of Hsp90-Cdc37 interaction in human A549 cells assessed as decrease in Cdc37 protein level at 5 uM incubated for 6 hrs by immunoprecipitation assay; type: cell-based
[28] = test system: A549; assay: Induction of apoptosis in human A549 cells assessed as early apoptotic cells at 0.8 uM incubated for 24 hrs by AnnexinV-FITC/propidium iodide staining-based flow cytometric analysis (reference value: 4.1%); type: functional
[29] = test system: A549; assay: Induction of apoptosis in human A549 cells assessed as decrease in Cdk4 expression incubated for 8 hrs by western blot analysis; type: functional, cell-based
[30] = test system: A549; assay: Induction of apoptosis in human A549 cells assessed as late apoptotic cells at 0.4 uM incubated for 24 hrs by AnnexinV-FITC/propidium iodide staining-based flow cytometric analysis (reference value: 4.2%); type: functional
[31] = test system: A549; assay: Cell cycle arrest in human A549 cells assessed as accumulation at G1 phase at 0.06 uM incubated for 24 hrs by propidium iodide staining based flow cytometry analysis (Rvb=55.3%); type: functional
[32] = test system: A549; assay: Cell cycle arrest in human A549 cells assessed as accumulation at G2 phase at 0.27 uM incubated for 24 hrs by propidium iodide staining based flow cytometry analysis (Rvb=18.01%); type: functional
[33] = test system: A549; assay: Cell cycle arrest in human A549 cells assessed as accumulation at G2 phase at 0.27 uM incubated for 12 hrs by propidium iodide staining based flow cytometry analysis (Rvb=11.7%); type: functional
[34] = test system: A549; assay: Induction of apoptosis in human A549 cells assessed as necrotic cells at 0.8 uM incubated for 24 hrs by AnnexinV-FITC/propidium iodide staining-based flow cytometric analysis (reference value: 3.6%); type: functional
[35] = test system: A549; assay: Induction of apoptosis in human A549 cells assessed as increase in cleaved PARP expression at 0.5 to 2 uM incubated for 8 hrs by western blot analysis; type: functional, cell-based
[36] = test system: A549; assay: Induction of apoptosis in human A549 cells assessed as early apoptotic cells at 0.4 uM incubated for 24 hrs by AnnexinV-FITC/propidium iodide staining-based flow cytometric analysis (reference value: 4.1%); type: functional

pIC50 [3]: 6.77
pIC50 [21]: 6.82
Structure (SMILES): COC(=O)/C=C\c1ccc(OC)c(OCCOC(=O)[C@]2(C)CC[C@]3(C)CC[C@]4(C)C5=CC=C6C(=CC(=O)C(O)=C6C)[C@]5(C)CC[C@@]4(C)[C@@H]3C2)c1
Activity [1]: 17.3%
Activity [2]: 52.2%
Activity [4]: Active
Activity [5]: Dose-dependent effect
Activity [6]: Active
Activity [7]: 4.4%
Activity [8]: Active
Activity [9]: Dose-dependent effect
viability at 0.4 µM [10]: 69.9%
Activity [11]: 15.7%
Activity [12]: Dose-dependent effect
Activity [13]: 23.55%
Activity [14]: 10.44%
viability at 1.2 µM [15]: 24.6%
Activity [16]: 12.7%
Activity [17]: 56.86%
Activity [18]: 11.3%
viability at 0.2 µM [19]: 77.7%
Activity [20]: Active
pIC50 [22]: 6.59
Activity [23]: 27.6%
Activity [24]: 35.25%
Activity [25]: 32.45%
Activity [26]: 61%
inhibition [27]: Active
Activity [28]: 16.1%
Activity [29]: Dose-dependent effect
Activity [30]: 16.4%
Activity [31]: 53.02%
Activity [32]: 9.56%
Activity [33]: 5.52%
Activity [34]: 6.9%
Activity [35]: Dose-dependent effect
Activity [36]: 10%
